{"source": "patent US12533350B2", "about": "“Use of melanocortin-1 receptor agonist” (TANABE PHARMA CORPORATION, priority 2022, dated 2026)", "key": {"[1]": {"test_system": "bleomycin (BLM)-induced systemic sclerosis (SSc) model: skin fibrosis and lung inflammation", "protocol": "The back of mice was shaved, and the middle of the back was marked with oil-based red ink. Phosphate-buffered saline (PBS) or BLM (Nippon Kayaku) (0.15 mg/0.1 mL per animal) was subcutaneously injected at the marked site once daily from day 0 to day 25. Compound A solutions at 0.1 mL/10 g of body weight were orally administered once daily (approximately 2 hours before the BLM injection) for 29 consecutive days from day 0 until the day before the end of evaluation (day 28).\nOn day 29, mice were euthanized by inhalation anesthesia with isoflurane, and whole blood and back skin samples were collected. The left lung was dissected, weighed, and immersed in RNAlater solution (Qiagen). The collected blood was separated into serum. The injection site of skin was excised, weighed (wet weight) and immersed in 0.5 mol/L acetic acid solution containing 0.3 mg/mL pepsin to solubilize collagen. The collagen content of the solubilized sample was explored using the QuickZyme Soluble Collagen Assay kit (QuickZyme Biosciences), and absorbance was determined by a microplate reader (VERSAmax, Molecular Devices, LLC). Serum levels of surfactant protein D (SP-D) were assayed using the Rat/Mouse SP-D kit YAMASA EIA (Yamasa Corporation), and absorbance was determined by a microplate reader (VERSAmax, Molecular Devices, LLC). Total RNA of lungs was isolated using RNeasy 96 Universal Tissue Kit (Qiagen) according to the manufacturer's instructions. Real-time PCR was performed using the One Step SYBR PrimeScript PLUS RT-PCR Kit (Takara Bio Inc.) and ABI PRISM 7900HT Real Time PCR System (Applied Biosystems). Takara perfect real time primer pairs (Takara Bio Inc.) were used to analyze the gene expression of chemokine Cc12 (also named as monocyte chemotactic protein-1 (Mcp-1, MA066003)), interleukin-6 (IL-6, MA039013), and hypoxanthine phosphoribosyltransferase (Hprt, MA031262). Quantification was performed using the comparative CT (cycle threshold) method employing Hprt as the housekeeping gene. A serum concentration of endothelin 1 (ET-1) was assayed using Quantikine Endothelin-1 (R & D systems) and the absorbance was measured by the microplate reader (VERSAmax, Molecular Devices, LLC).\nTherefore, differences in body weight at each time point were analyzed between the PBS_vehicle and BLM_vehicle groups using Student's t test."}, "[2]": {"target": "MC1R (Homo sapiens, UniProt Q01726)", "sequence (Q01726 whole entry, species assumed)": "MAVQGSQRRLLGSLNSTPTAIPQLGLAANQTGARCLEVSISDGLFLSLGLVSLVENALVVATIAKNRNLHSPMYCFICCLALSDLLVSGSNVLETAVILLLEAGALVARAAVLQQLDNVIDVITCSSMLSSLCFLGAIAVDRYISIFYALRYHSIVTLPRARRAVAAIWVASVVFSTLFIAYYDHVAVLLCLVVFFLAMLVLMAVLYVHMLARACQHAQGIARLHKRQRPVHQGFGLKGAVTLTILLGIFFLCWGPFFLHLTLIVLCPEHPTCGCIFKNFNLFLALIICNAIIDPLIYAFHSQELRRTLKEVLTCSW", "conditions": "described in WO 2020/138481; co-crystal with phosphoric acid; cited from earlier work"}, "[3]": {"conditions": "Compound A at ≥0.3 mg/kg orally once daily day 0-28, measured day 29"}, "[4]": {"conditions": "Compound A at ≥0.3 mg/kg orally once daily day 0-28, measured day 29, relative to Hprt"}}}
{"smiles": "COC[C@H]1CN(C(=O)[C@]2(F)CN(C3CCCC3)C[C@H]2c2ccc(OC)cc2)C[C@@H]1c1ccc(C(F)(F)F)cc1N1CCC(C(=O)O)CC1", "note": "[Compound A, 1-{2-[(3S,4R)-1-{[(3R,4R)-1-cyclopentyl-3-fluoro-4-(4-methoxyphenyl)pyrrolidin-3-yl]carbonyl}-4-(methoxymethyl)pyrrolidin-3-yl]-5-(trifluoromethyl)phenyl}piperidine-4-carboxylic acid]", "values": [{"measurement": "BLM-induced increase of collagen content of the skin", "setting": "[1]; [3]", "value": "inhibited significantly"}, {"measurement": "BLM-induced increase of serum concentration of ET-1", "setting": "[1]; [3]", "value": "inhibited significantly"}, {"measurement": "BLM-induced increase of serum level of SP-D", "setting": "[1]; [3]", "value": "inhibited significantly"}, {"measurement": "BLM-induced increase of wet weight of the left lung", "setting": "[1]; [3]", "value": "inhibited significantly"}, {"measurement": "BLM-induced increase of IL-6 mRNA expression in the lung", "setting": "[1]; [4]", "value": "inhibited significantly"}, {"measurement": "BLM-induced increase of Mcp-1 mRNA expression in the lung", "setting": "[1]; [4]", "value": "inhibited significantly"}, {"measurement": "BLM-induced decrease of body weight", "setting": "[1]; Compound A at ≥0.3 mg/kg orally once daily, day 0 to day 29", "value": "significantly improved"}, {"measurement": "MCR-activating action, especially MC1R-activating action", "setting": "[2]", "value": "excellent MCR-activating action"}]}
